Measurements as given in US20040009185A1, “Enhancing the immune response to an antigen by presensitzing with an inducing agent prior to immunizing with the agent and the antigen” (priority 2003, published 2004).

Columns and labels:
CEA = format: in vivo, A2Kb transgenic mice; details: priming with 20.0 μg toxoid i.m., then ALVAC CEA recombinant given as a mixture with the toxoid; FIG. 6
[1] = tested on: gp100 (native or modified); format: in vivo, A2Kb transgenic mice; details: priming with 20.0 μg toxoid i.m., then ALVAC gp100 recombinant given as a mixture with the toxoid; FIGS. 7 and 8
modified gp100 = tested on: modified gp100; parameters: species or system A2Kb transgenic mice; details: mouse, in vivo

tetanus toxoid
immune response to the CEA antigen (reactive T cells, IFN gamma ELISPOT) (CEA): clearly enhanced | immune response to the modified gp100 and gp100 antigens (reactive T cells, IFN gamma ELISPOT) [1]: clearly enhanced | immune response to the immunogen modified gp100 (gp100-specific CTL response) (modified gp100): clearly enhanced

diphtheria toxoid
immune response to the CEA antigen (reactive T cells, IFN gamma ELISPOT) (CEA): clearly enhanced | immune response to the modified gp100 and gp100 antigens (reactive T cells, IFN gamma ELISPOT) [1]: clearly enhanced
